Measurements published in US12479847B2 (DANA-FARBER CANCER INSTITUTE, INC., priority 2019, dated 2025).

Assays:
Assay in all cases: KINOMEscan (ScanMAX) kinase profiling
Type in all cases: binding
panel of 468 kinases [1] = target: T1, panel of 468 kinases (Homo sapiens, UniProt Q9P289); settings: MST4; 1 μM; read-out: % control
T1 construct: purchased KINOMEscan (ScanMAX) service

panel of 468 kinases [2] = target: T2, panel of 468 kinases (Homo sapiens, UniProt P35626); settings: GRK3; 1 μM; read-out: % control
T2 construct: purchased KINOMEscan (ScanMAX) service
T2 sequence (P35626 1-688): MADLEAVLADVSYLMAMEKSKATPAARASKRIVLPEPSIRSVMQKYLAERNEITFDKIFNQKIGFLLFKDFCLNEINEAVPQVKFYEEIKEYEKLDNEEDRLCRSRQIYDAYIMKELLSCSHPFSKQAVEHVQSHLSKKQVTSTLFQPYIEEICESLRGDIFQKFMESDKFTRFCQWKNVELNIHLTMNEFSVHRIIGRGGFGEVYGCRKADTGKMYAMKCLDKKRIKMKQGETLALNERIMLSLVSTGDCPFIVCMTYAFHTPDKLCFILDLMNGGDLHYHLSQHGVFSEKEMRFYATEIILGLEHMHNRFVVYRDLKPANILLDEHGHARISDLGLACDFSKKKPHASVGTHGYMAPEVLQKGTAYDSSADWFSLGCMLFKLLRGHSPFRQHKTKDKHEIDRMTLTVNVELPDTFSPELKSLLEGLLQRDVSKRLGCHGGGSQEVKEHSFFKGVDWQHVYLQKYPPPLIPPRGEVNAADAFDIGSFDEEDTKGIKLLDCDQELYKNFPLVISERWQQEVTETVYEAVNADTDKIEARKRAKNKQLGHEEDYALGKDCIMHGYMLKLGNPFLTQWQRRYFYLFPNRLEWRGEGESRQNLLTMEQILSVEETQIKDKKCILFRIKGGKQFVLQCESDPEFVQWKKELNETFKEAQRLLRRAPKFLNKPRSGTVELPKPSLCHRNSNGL

panel of 468 kinases [3] = target: T3, panel of 468 kinases (Homo sapiens, UniProt Q9BXA7); settings: TSSK1B; 1 μM; read-out: % control
T3 construct: purchased KINOMEscan (ScanMAX) service
T3 sequence (Q9BXA7 1-367): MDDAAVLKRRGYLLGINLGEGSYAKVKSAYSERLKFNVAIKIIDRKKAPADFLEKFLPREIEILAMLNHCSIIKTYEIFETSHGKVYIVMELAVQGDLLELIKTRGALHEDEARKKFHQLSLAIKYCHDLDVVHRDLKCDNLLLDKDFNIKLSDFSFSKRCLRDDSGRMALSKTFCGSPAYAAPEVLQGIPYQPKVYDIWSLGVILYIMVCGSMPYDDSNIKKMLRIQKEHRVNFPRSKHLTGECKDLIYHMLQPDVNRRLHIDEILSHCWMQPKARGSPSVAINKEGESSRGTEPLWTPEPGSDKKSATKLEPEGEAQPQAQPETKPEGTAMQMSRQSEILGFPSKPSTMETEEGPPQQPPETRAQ

panel of 468 kinases [4] = target: T4, panel of 468 kinases (Homo sapiens, UniProt P35916); settings: FLT4; 1 μM; read-out: % control
T4 construct: purchased KINOMEscan (ScanMAX) service
T4 sequence (P35916 25-1363): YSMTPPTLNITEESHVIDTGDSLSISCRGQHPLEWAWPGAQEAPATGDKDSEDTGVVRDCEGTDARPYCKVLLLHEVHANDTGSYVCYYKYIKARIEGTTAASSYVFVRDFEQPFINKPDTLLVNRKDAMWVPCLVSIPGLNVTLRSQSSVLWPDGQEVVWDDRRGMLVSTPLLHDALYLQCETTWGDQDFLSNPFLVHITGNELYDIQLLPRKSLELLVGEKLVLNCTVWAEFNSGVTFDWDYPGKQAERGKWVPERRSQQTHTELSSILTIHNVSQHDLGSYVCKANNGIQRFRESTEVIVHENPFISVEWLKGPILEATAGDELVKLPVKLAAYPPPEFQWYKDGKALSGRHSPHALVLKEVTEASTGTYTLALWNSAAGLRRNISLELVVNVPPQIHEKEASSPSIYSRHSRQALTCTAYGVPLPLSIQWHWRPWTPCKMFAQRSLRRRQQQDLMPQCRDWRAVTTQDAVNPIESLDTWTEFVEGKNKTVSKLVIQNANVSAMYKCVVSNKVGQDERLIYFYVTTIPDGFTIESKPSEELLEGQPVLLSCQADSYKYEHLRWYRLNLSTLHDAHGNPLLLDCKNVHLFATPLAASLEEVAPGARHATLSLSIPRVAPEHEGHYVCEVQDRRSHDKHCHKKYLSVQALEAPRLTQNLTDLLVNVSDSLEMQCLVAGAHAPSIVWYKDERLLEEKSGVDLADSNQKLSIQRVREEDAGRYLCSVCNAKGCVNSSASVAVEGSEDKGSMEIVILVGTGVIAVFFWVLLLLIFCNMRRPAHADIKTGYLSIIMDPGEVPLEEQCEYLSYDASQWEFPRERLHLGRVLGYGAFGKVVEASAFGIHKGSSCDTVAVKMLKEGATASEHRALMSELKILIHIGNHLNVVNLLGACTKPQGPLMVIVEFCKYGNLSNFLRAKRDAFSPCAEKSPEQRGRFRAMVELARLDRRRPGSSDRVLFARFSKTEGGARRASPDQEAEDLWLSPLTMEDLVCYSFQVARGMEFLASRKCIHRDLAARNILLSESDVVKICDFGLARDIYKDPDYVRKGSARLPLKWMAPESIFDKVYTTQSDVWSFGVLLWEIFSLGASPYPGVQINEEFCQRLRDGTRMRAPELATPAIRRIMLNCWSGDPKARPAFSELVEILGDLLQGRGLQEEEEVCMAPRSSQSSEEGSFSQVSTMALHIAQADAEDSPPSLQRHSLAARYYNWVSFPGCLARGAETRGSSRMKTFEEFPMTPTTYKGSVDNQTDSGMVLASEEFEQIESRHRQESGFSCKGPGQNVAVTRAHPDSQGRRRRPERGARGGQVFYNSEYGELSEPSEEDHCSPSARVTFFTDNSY

panel of 468 kinases [5] = target: T5, panel of 468 kinases (Homo sapiens, UniProt P00533, T790M); settings: EGFR(T790M); 1 μM; read-out: % control
T5 construct: purchased KINOMEscan (ScanMAX) service
T5 sequence (P00533 25-1210 T790M): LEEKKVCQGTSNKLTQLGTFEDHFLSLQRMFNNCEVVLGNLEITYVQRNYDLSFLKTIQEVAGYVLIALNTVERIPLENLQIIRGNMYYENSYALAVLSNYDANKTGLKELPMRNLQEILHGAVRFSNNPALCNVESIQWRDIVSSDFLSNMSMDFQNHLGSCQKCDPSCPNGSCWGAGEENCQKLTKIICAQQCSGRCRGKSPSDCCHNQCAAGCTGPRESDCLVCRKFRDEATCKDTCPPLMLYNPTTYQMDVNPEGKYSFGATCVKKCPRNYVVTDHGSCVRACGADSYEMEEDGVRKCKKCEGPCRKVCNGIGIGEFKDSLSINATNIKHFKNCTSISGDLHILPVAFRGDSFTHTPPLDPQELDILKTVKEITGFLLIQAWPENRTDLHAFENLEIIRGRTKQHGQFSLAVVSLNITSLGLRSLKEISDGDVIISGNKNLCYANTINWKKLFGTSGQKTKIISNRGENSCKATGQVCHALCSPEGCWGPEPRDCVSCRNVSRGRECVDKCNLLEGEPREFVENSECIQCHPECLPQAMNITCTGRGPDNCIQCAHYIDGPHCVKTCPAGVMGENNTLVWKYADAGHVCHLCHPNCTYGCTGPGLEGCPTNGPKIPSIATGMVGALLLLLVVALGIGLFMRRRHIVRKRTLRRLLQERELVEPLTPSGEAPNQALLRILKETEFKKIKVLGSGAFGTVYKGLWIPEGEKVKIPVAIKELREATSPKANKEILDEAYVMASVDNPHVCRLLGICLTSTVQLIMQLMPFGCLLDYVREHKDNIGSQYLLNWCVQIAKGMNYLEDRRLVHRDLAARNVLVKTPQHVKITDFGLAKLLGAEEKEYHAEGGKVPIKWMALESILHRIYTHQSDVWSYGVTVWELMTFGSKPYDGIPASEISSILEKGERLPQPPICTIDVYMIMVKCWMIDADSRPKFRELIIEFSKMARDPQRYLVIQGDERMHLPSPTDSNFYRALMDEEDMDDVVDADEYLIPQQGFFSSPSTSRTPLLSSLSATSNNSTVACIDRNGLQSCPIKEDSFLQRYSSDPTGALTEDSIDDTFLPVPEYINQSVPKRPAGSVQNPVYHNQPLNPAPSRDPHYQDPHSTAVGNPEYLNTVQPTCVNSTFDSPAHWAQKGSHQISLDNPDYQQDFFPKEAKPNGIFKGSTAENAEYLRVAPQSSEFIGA

panel of 468 kinases [6] = target: T6, panel of 468 kinases (Homo sapiens, UniProt P00533, G719C); settings: EGFR(G719C); 1 μM; read-out: % control
T6 construct: purchased KINOMEscan (ScanMAX) service
T6 sequence (P00533 25-1210 G719C): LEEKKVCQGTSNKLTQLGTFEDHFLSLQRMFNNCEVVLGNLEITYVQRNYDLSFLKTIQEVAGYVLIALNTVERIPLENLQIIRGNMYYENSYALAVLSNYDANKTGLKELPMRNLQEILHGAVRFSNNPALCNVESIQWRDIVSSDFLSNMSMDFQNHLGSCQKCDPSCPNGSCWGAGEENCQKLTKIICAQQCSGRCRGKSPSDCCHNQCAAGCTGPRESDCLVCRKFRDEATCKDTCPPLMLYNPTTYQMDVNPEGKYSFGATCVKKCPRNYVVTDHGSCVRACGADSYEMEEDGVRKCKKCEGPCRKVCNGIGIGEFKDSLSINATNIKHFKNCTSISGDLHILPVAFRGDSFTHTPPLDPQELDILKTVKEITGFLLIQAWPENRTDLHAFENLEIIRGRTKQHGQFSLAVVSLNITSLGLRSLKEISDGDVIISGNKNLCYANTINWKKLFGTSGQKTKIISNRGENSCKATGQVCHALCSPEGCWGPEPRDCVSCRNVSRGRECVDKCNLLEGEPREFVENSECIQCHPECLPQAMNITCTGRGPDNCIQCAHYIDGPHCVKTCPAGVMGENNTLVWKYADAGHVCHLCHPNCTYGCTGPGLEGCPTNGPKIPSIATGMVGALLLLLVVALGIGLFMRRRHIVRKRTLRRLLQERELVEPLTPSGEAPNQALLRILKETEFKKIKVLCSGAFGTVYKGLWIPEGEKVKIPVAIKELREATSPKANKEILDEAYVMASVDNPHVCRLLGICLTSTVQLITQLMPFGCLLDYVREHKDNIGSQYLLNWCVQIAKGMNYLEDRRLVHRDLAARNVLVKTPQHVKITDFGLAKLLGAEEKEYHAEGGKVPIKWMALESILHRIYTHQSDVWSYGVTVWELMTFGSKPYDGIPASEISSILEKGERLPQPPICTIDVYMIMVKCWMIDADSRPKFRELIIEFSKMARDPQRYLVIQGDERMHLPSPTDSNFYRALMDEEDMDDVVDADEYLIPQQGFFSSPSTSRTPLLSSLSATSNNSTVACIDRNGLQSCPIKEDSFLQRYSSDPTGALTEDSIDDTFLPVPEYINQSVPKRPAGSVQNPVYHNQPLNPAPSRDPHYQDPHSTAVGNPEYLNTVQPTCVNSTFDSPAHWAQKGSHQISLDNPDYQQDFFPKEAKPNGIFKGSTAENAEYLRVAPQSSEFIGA

panel of 468 kinases [7] = target: T7, panel of 468 kinases (Homo sapiens, UniProt Q9HCP0); settings: CSNK1G1; 1 μM; read-out: % control
T7 construct: purchased KINOMEscan (ScanMAX) service
T7 sequence (Q9HCP0 whole entry): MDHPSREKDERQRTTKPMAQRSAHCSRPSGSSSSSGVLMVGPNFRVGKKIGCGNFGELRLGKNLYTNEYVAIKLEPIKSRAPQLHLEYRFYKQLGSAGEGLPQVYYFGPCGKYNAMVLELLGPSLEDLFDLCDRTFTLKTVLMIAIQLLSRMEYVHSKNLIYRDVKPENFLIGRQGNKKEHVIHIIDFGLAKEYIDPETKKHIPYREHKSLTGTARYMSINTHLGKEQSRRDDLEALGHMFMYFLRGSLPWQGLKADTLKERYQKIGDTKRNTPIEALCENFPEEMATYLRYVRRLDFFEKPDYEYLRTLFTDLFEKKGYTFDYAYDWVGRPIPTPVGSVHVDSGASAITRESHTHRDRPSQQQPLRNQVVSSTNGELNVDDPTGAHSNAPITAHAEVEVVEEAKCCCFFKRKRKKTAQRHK

panel of 468 kinases [8] = target: T8, panel of 468 kinases (Homo sapiens, UniProt Q15208); settings: NDR1; 1 μM; read-out: % control
T8 construct: purchased KINOMEscan (ScanMAX) service
T8 sequence (Q15208 whole entry): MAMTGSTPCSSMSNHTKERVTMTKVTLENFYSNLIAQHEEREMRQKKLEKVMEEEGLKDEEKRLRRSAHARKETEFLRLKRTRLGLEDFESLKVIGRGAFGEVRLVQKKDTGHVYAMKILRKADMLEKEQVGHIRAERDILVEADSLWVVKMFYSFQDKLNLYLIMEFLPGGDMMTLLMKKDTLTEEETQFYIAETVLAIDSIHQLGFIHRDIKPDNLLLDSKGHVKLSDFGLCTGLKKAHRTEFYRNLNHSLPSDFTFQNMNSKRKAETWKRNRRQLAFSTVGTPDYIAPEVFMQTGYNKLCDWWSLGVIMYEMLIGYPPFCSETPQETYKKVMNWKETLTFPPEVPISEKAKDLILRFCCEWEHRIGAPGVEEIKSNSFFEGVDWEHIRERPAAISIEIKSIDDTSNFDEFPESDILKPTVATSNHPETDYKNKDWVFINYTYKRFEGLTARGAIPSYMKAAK

panel of 468 kinases [9] = target: T9, panel of 468 kinases (Homo sapiens, UniProt P54760); settings: EPHB4; 1 μM; read-out: % control
T9 construct: purchased KINOMEscan (ScanMAX) service
T9 sequence (P54760 16-987): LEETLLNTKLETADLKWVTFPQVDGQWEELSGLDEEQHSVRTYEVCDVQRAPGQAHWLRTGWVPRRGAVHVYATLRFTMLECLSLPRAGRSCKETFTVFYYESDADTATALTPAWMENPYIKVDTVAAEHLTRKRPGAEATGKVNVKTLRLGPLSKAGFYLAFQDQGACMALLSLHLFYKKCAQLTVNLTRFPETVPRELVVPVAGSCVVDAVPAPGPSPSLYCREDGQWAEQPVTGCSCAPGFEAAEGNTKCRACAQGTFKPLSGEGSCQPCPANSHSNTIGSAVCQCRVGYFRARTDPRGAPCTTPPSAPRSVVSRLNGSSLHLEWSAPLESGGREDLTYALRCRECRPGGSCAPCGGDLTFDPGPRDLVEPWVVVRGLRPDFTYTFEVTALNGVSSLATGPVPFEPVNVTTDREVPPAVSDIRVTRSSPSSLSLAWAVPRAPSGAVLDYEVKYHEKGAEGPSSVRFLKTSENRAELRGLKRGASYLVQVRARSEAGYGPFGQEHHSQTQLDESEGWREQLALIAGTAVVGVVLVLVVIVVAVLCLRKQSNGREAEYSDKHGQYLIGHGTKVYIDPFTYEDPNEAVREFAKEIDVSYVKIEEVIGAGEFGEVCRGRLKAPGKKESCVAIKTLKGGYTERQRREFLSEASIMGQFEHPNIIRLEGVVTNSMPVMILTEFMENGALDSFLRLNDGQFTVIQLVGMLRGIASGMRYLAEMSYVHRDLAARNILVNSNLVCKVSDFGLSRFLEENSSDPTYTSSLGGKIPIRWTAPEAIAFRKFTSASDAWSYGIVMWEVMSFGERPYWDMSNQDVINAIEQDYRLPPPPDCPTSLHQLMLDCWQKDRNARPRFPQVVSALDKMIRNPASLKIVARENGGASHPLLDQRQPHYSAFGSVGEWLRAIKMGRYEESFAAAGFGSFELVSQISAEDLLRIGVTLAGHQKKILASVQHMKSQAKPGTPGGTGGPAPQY

T1 sequence (Q9P289 whole entry): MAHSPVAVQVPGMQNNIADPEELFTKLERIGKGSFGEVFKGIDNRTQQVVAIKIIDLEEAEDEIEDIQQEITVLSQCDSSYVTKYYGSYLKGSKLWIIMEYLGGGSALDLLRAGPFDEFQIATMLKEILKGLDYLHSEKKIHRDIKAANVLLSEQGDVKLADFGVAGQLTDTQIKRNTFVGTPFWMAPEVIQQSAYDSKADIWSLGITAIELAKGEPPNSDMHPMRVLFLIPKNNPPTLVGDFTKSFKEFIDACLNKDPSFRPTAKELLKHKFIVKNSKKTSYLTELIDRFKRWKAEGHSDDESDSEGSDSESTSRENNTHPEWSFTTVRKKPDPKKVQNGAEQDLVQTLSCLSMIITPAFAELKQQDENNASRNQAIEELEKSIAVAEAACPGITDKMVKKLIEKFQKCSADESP

SMILES	remaining binding at 1 µM (panel of 468 kinases [1])	remaining binding at 1 µM (panel of 468 kinases [2])	remaining binding at 1 µM (panel of 468 kinases [3])	remaining binding at 1 µM (panel of 468 kinases [4])	remaining binding at 1 µM (panel of 468 kinases [5])	remaining binding at 1 µM (panel of 468 kinases [6])	remaining binding at 1 µM (panel of 468 kinases [7])	remaining binding at 1 µM (panel of 468 kinases [8])	remaining binding at 1 µM (panel of 468 kinases [9])
CNc1nc(Nc2ccc(S(=O)(=O)N3CCC(N4CCOCC4)CC3)cc2OC)nc2[nH]cc(Cl)c12 [Compound 12, 5-chloro-N2-(2-methoxy-4-((4-morpholinopiperidin-1-yl)sulfonyl)phenyl)-N4-methyl-7H-pyrrolo[2,3-d]pyrimidine-2,4-diamine]	80%	100%	72%	100%	75%	97%	100%	83%	100%
CNc1nc(Nc2ccc(C(=O)N3CCC(N4CCOCC4)CC3)c3c2OCO3)nc2[nH]cc(Cl)c12 [Compound 75, (7-((5-chloro-4-(methylamino)-7H-pyrrolo[2,3-d]pyrimidin-2-yl)amino)benzo[d][1,3]dioxol-4-yl)(4-morpholinopiperidin-1-yl)methanone]	51%	78%	49%	100%	63%	100%	28%	90%	100%
CNc1nc(Nc2ccc(P3(=O)CCN(C4CCOCC4)CC3)cc2OC)nc2[nH]cc(Cl)c12 [Compound 77, 4-(4-((5-chloro-4-(methylamino)-7H-pyrrolo[2,3-d]pyrimidin-2-yl)amino)-3-methoxyphenyl)-1-(tetrahydro-2H-pyran-4-yl)-1,4-azaphosphinane 4-oxide]	76%	82%	33%	100%	55%	99%	100%	83%	100%
